Laboratory results published in publication PMC5512002 (Cellular signalling, 2017).

Target: T1, GPR55 (Rattus norvegicus, UniProt F1MAK4)
T1 sequence (F1MAK4 1-319): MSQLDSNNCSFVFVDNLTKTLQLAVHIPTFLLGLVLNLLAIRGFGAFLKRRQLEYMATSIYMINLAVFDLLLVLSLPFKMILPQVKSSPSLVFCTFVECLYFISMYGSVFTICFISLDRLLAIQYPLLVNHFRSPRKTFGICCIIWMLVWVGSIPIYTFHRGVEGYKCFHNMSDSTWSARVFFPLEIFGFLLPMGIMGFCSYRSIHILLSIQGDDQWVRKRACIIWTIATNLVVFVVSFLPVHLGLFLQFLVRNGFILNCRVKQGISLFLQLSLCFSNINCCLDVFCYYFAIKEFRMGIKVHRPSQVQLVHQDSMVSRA
Test: inhibition of uptake of fluorescent GPR55 ligand T1117 in live C6 cells
Format: cell-based

COc1ccc(C[C@@H](C)NC[C@H](O)c2cc(O)cc(O)c2)c2ccccc12 [(R,R′)-MNF]
IC50: 320 nM
